The results in this text go back to ChEMBL document CHEMBL1201862, “PubChem BioAssay data set” (2004).

For assay [1], the target named is T1, Fructose-bisphosphate aldolase (Mycobacterium tuberculosis, UniProt P9WQA3).
T1 sequence (P9WQA3 whole entry): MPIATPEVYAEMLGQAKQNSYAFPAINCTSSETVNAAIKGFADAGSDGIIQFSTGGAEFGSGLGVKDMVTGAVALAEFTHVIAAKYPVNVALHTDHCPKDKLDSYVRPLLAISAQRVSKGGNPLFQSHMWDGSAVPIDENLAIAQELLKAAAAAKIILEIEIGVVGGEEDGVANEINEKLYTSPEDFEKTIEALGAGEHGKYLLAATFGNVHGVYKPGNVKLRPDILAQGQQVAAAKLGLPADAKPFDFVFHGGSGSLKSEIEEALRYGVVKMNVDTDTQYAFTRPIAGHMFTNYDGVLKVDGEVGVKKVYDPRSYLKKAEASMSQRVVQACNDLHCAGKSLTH
As to the kind of experiment: Fluorescence-based biochemical high throughput dose response assay for inhibitors of the fructose-bisphosphate aldolase (FBA) of M. tuberculosis. The class given is functional.

Assay [2] has as its target T2, Beta-lactamase (Pseudomonas aeruginosa, UniProt Q79MP6). As to the kind of experiment: IMP-1 metallo-beta-lactamase inhibitors, dose response, selectivity assay for VIM-2 inhibitor project, biochemical, epi-absorbance (AID 1920).
The target in assay [3] is T2, Beta-lactamase. As to the kind of experiment: […] counterscreen for selective VIM-2 inhibitors: dose response biochemical high throughput screening assay to identify inhibitors of IMP-1 metallo-beta-lactamase. (In general: The purpose of a counterscreen is to sort out artefacts and off-target activity.)
Assay [4] addresses Beta-lactamase (Salmonella choleraesuis (strain SC-B67), UniProt Q5J463). Briefly: Epi-absorbance-based counterscreen for selective VIM-2 inhibitors: dose response biochemical high throughput screening assay to identify inhibitors of TEM-1 serine-beta-lactamase.
The target in assay [5] is T3, Nuclear receptor subfamily 0 group B member 1 (Homo sapiens, UniProt P51843).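 Also: HEK293T cells transfected with SF-1 and DAX-1 plus StAR promoter luciferase reporter.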
T3 sequence (P51843 whole entry): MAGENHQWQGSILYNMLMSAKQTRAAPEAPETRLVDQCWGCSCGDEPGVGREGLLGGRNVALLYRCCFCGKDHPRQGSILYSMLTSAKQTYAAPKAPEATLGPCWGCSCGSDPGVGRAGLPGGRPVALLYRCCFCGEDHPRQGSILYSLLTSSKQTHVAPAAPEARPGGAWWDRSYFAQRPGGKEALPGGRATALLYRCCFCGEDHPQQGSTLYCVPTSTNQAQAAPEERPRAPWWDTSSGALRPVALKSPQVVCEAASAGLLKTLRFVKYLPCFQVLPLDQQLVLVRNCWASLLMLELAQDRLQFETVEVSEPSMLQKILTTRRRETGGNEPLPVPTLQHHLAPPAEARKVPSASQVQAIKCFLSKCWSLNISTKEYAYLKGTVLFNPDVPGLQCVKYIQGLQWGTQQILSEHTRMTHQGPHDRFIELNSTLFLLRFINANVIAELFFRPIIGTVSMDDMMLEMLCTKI
The class given is functional, cell-based.

The nature of assay [6]: cells. The class given is functional, cell-based.
Assay [7] addresses Beta-galactosidase (Escherichia coli, UniProt Q8VNN2). As to the kind of experiment: beta-galactosidase enzyme inhibitors and activators, dose response, artefact control for CCR6 antagonist project, biochemical, E. coli enzyme, set 3 (AID 504712). The class given is functional.
Assay [8] can be described thus: inhibitors of clade B AD8 Env fusion, dose response, cell-based, cherry-pick (AID 652062).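 Also: luciferase signal from cell-cell fusion driven by HIV-1 clade B AD8 Env; potency is for inhibitors of fusion seen as a drop in luminescence.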 The class given is functional.
Assay [9] can be described thus: HEK293T cytotoxicity, dose response, cytotoxicity control for miR-122 modulator project, cell-based, inhibitor set, cherry-pick, set 2 (AID 720697). The class given is functional.
The target in assay [10] is T4, Probable nicotinate-nucleotide adenylyltransferase (Staphylococcus aureus (strain N315), UniProt P65502). The class given is functional, Staphylococcus aureus subsp. aureus N315.
The target in assay [11] is T4, Probable nicotinate-nucleotide adenylyltransferase. The class given is functional, Staphylococcus aureus subsp. aureus N315. The conditions noted are these: read-out: IC50_Mean.
For assay [12], the system named is Streptococcus. Briefly: Group A Streptococcus viability loss, dose response, counter-screen for streptokinase expression inhibitor project, luminescence, BacTiterGlo (AID 1915).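 Also: potency for reduction of bacterial viability or growth.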 The class given is functional, organism-based.
For assay [13], the target named is T5, Streptokinase A (Streptococcus pyogenes serotype M1, UniProt P10520).
T5 sequence (P10520 whole entry): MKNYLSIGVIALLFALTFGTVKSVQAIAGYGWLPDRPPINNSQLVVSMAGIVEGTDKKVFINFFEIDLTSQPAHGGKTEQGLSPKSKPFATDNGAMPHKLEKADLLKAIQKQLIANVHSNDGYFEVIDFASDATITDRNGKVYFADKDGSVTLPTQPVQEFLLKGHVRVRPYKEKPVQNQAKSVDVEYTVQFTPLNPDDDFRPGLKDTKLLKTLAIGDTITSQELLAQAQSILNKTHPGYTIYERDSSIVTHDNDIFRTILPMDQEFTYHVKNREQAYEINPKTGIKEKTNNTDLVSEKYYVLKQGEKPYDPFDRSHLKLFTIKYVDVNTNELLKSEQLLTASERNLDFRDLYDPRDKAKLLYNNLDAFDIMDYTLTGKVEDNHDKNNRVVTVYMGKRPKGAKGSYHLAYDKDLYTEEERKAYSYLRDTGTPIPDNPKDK
As to the kind of experiment: S. pyogenes streptokinase expression inhibitors, potency, dose response, plasminogen activation absorbance, OD405 (AID 1914).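 Also: secreted streptokinase activity via plasminogen activation per viability signal from cell pellet.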 The class given is functional, Streptococcus pyogenes M1 GAS.

Assay [14] deals with Streptococcus sp. 'group A'. Briefly: growth inhibition of control SK(-) GAS strain, dose response, counter-screen for streptokinase expression inhibitor project, luminescence, kanamycin, BacTiterGlo, confirmation (AID 1900). The class given is functional, organism-based.
The target in assay [15] is T6, Ubiquitin-conjugating enzyme E2 N (Homo sapiens, UniProt P61088).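 Also: Dose-response confirmation in a TR-FRET assay detecting UBC13-driven polyubiquitin chain formation, inhibition measured.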
T6 sequence (P61088 whole entry): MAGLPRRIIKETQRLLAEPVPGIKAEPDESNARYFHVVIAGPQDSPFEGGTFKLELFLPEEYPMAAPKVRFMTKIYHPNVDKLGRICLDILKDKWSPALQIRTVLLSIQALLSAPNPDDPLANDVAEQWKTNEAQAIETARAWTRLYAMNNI
The class given is functional.

Assay [16] addresses Homeodomain-interacting protein kinase 2 (Homo sapiens, UniProt Q9H2X6). The class given is functional.
Assay [17] concerns the target Cell division cycle 7-related protein kinase (Homo sapiens, UniProt O00311). The class given is functional.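 Also: value obtained from a kinome-wide kinase panel.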
For assay [18], the target named is Glycogen synthase kinase-3 beta (Homo sapiens, UniProt P49841). The class given is functional.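 Also: value comes from a broad kinome profiling panel, with GSK3B as the panel member.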
Assay [19] concerns the target Dual specificity protein kinase CLK4 (Homo sapiens, UniProt Q9HAZ1). The class given is functional.
The target of assay [20] is T7, Interleukin-1 receptor-associated kinase 4 (Homo sapiens, UniProt Q9NWZ3).
T7 sequence (Q9NWZ3 whole entry): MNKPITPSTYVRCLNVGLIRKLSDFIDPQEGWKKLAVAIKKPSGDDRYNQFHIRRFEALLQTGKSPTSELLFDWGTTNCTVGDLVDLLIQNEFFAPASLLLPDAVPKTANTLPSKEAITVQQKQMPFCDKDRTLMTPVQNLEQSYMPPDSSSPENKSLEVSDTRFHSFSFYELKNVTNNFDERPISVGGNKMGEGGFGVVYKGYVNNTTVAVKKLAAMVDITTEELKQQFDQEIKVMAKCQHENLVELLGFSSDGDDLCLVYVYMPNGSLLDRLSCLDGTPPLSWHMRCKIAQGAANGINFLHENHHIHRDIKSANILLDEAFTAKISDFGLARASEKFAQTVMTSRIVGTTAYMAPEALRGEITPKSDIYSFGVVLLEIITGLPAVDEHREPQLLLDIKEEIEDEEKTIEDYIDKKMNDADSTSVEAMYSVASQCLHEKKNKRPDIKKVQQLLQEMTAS
The class given is functional.

Assay [21] concerns the target Mitogen-activated protein kinase kinase kinase kinase 4 (Homo sapiens, UniProt O95819). The class given is functional.
In assay [22] the target is cAMP-dependent protein kinase catalytic subunit alpha (Homo sapiens, UniProt P17612). The class given is functional.
Assay [23] has as its target Serine/threonine-protein kinase pim-1 (Homo sapiens, UniProt P11309). The class given is functional.
Assay [24] concerns the target T8, Hepatocyte nuclear factor 4-alpha (Homo sapiens, UniProt P41235).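 Also: biochemical luminescence-based dose-response counterscreen measuring inhibition of HNF4 dimerization, run alongside a screen for blockers of ABHD5–perilipin-5 interaction; split luciferase complementation of HNF4 fusion proteins in cell lysate measuring dimerization.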
T8 sequence (P41235 whole entry): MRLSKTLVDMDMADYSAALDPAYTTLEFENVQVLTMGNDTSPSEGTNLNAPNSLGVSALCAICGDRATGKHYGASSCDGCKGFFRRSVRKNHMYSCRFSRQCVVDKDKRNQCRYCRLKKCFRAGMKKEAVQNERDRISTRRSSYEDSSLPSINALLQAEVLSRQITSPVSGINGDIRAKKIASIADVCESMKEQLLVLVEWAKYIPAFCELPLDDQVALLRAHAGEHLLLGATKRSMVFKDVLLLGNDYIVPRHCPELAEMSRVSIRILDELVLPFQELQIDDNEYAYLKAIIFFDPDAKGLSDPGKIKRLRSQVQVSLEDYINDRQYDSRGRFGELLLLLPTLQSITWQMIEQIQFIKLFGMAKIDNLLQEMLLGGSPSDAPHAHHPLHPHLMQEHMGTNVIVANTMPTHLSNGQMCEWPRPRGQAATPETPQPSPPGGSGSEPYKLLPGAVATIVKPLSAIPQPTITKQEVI
The class given is functional, cell-based.

Calls of active or inactive are those of the source. Bounds are passed on as bounds.
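For IC50 Mean in this document: confirmatory dose-response retesting of NadD inhibitor hits first found in an ultra-high-throughput screen.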

T2 sequence (Q79MP6 whole entry): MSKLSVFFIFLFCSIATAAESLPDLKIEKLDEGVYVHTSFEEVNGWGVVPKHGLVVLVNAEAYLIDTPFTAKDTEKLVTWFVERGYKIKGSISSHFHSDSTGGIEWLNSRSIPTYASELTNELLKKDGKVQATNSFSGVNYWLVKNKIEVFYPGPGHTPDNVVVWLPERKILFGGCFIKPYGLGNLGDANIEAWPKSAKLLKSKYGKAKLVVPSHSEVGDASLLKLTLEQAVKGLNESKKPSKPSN
Chain of Beta-lactamase (Salmonella choleraesuis (strain SC-B67), UniProt Q5J463) (Q5J463 whole entry): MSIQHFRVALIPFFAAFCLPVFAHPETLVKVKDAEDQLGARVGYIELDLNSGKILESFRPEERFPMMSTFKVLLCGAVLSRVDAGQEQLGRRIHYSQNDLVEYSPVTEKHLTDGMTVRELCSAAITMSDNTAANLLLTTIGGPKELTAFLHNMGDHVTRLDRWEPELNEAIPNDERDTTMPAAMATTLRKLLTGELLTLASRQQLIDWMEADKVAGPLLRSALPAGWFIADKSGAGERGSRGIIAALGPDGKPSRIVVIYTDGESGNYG
T4 sequence (P65502 whole entry): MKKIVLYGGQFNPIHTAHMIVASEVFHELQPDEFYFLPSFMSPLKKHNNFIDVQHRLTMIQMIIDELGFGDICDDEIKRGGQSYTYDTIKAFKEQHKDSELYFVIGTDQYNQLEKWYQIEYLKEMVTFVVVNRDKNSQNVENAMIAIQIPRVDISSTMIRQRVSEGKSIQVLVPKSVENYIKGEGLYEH
Chain of Cell division cycle 7-related protein kinase (O00311 whole entry): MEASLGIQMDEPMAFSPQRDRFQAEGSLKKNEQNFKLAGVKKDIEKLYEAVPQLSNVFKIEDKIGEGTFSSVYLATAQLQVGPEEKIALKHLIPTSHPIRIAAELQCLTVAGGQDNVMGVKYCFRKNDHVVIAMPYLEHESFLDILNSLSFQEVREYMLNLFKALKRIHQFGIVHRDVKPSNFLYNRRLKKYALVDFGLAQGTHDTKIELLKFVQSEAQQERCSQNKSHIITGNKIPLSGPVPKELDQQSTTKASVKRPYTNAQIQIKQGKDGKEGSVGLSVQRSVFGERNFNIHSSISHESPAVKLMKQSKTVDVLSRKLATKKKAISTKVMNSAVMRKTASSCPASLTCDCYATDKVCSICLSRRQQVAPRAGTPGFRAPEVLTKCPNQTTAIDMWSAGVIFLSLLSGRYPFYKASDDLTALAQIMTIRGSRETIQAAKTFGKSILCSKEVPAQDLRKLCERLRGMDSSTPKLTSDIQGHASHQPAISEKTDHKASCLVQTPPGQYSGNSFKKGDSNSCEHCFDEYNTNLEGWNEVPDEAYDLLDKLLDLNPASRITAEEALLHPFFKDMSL
Chain of Glycogen synthase kinase-3 beta (P49841 whole entry): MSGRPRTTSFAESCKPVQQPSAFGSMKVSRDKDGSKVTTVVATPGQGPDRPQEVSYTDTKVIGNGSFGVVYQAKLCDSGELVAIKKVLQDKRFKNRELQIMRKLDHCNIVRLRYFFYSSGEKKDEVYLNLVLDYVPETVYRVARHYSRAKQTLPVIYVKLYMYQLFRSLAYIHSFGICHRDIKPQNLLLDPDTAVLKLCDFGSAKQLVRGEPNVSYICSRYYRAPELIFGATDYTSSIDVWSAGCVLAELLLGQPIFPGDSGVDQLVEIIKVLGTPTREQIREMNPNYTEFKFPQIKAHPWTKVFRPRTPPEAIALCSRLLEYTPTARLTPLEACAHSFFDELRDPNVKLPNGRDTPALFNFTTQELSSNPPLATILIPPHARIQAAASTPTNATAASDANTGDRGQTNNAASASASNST
Chain of Homeodomain-interacting protein kinase 2 (Q9H2X6 whole entry): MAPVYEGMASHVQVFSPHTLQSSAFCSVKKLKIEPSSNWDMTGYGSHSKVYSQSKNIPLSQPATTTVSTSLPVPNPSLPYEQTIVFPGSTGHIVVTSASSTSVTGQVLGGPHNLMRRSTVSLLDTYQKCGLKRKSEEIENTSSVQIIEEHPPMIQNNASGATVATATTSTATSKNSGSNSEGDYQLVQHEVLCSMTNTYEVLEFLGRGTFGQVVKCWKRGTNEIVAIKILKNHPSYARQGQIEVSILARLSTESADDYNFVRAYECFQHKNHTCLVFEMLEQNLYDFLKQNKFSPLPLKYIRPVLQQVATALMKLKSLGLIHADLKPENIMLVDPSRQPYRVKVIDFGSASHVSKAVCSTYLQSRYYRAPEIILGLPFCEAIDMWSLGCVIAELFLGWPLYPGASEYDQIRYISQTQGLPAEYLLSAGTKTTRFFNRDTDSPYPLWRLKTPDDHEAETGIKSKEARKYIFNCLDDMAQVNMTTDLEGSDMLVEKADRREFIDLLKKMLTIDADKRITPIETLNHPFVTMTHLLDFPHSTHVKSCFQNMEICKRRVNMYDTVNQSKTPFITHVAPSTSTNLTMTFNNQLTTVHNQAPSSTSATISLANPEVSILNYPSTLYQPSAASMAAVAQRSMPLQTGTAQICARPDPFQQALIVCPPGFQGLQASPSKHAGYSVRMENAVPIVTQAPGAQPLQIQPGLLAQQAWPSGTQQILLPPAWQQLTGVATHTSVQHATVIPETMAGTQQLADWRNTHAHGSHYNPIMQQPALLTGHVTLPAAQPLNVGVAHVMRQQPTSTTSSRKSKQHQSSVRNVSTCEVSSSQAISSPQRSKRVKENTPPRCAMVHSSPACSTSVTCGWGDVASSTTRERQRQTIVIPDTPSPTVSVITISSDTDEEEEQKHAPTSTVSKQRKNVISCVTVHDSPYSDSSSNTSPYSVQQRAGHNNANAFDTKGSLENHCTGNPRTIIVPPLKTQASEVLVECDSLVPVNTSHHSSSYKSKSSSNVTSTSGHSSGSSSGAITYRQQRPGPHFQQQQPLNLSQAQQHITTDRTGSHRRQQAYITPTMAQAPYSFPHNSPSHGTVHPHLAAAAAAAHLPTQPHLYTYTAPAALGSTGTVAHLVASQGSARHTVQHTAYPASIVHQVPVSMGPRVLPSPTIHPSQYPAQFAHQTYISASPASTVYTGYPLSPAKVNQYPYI
Chain of Dual specificity protein kinase CLK4 (Q9HAZ1 whole entry): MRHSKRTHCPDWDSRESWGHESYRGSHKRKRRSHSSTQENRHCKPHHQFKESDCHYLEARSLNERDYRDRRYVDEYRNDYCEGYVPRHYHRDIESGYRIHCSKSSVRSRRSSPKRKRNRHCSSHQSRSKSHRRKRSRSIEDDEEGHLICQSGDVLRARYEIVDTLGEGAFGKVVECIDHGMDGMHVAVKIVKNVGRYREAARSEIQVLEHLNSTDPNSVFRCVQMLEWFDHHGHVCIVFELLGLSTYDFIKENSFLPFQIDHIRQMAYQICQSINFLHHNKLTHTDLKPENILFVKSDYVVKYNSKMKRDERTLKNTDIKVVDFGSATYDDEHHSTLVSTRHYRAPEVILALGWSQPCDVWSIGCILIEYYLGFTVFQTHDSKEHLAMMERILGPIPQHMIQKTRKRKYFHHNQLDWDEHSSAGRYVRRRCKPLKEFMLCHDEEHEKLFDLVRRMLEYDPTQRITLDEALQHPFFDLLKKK
Chain of Serine/threonine-protein kinase pim-1 (P11309 whole entry, the tested form may be a part): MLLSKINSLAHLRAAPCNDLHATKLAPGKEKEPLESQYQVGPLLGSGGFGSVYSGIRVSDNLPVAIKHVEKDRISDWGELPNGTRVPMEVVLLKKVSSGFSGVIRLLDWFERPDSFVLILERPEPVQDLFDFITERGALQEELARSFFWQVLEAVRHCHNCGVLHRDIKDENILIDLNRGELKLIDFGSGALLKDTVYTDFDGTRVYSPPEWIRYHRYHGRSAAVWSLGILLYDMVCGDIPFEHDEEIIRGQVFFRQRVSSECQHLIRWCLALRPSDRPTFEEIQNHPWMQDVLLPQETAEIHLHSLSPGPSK
Chain of Beta-galactosidase (Q8VNN2 whole entry, the tested form may be a part): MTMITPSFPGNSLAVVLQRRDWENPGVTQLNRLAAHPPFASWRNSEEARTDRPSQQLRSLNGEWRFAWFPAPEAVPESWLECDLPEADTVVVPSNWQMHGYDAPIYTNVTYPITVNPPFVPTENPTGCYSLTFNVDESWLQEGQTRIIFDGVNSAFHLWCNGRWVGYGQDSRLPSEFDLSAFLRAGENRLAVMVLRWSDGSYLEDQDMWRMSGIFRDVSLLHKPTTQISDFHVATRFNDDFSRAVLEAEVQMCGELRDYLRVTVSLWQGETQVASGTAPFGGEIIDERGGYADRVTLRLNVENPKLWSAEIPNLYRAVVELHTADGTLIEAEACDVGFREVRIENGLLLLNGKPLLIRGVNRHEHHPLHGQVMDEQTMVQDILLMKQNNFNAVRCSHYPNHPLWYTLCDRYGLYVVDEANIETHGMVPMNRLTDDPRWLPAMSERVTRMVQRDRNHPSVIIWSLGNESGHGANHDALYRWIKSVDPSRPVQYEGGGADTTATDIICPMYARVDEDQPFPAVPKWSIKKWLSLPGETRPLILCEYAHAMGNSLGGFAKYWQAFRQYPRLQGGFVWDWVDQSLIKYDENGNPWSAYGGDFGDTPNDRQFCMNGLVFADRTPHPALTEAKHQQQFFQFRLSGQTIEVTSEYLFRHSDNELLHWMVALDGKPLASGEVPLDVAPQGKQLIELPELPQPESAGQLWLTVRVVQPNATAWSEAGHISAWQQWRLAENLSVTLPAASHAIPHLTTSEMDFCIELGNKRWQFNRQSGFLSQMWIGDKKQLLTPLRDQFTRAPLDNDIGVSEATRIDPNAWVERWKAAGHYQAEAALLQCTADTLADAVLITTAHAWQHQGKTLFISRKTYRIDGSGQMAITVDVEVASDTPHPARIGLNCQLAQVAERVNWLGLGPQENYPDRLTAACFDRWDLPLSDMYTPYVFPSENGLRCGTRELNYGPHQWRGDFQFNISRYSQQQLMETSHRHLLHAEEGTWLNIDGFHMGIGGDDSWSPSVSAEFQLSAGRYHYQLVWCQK

Consider `O=C(NCc1cccc(Cl)c1)C1=CC=CN2CCS(=O)(=O)N=C12`, for which, in assay [1], the IC50 was 2.61 µM (active).
As for `CC(C)(C)c1ccc(-c2n[nH]c(=S)n2CCCN2CCOCC2)cc1`, the IC50 in assay [2], in assay [3] and in assay [4] was > 59.6 µM (inactive) each time.
Consider `COc1ccc2[nH]c(C(=O)O)c(CCN3C(=O)c4ccc(C(=O)O)cc4C3=O)c2c1`, for which the IC50 in assay [2], in [3] and in assay [4] was > 59.6 µM (inactive) in each case.
`Cc1ccc(NC(S)=NNC(=O)Nc2ccccc2)cc1`: the IC50 is > 67.6 µM (inactive) in assay [5], > 67.6 µM (inactive) in assay [6] and > 66.6 µM (inactive) in [7].
Regarding `CCOc1ccc(-n2nc3ccc(N)cc3n2)cc1`, the IC50 in [1] is 0.716 µM (active).
In the case of `Cc1ccc(C(=O)NNC(=O)c2ccc3c(c2)OCCO3)cc1`, the IC50 in [5] and in [6] was > 67.5 µM (inactive) each time.
`CCCN1CCN(CCCNC(=O)c2ccc3c(c2)NC(=O)c2ccccc2S3)CC1`: the IC50 in assay [5] and in assay [6] was > 67.5 µM (inactive) in each case.
For `COc1ccc(-c2cn3c(C)c(C(=O)Nc4cccc(NC(C)=O)c4)sc3n2)cc1`, the AC50 in assay [8] is 17 µM (active); in assay [9] it was 6.44 µM (active).
`CC(C)(C)CC(=O)Nc1nnc(SCC(=O)NCc2cccs2)s1`: the IC50 in assay [2], in [3] and in [4] was > 59.6 µM (inactive) throughout.
`Cn1cccc1-c1nc2ccccc2n1C`: the IC50 in assay [1] was 3.08 µM (active).
Turning to `COc1ccc(NS(=O)(=O)c2ccc(NC(=S)NC(=O)/C=C/c3ccc(C)cc3)cc2)nn1`, the IC50 in [10] is 5.17 µM (active); in assay [11] it was 39.3 µM (active).
Consider `CC(C)Cn1c(=O)c(C(=O)Nc2ccccc2S(N)(=O)=O)c(O)c2ccccc21`, for which the EC50 in assay [12] was 28.6 µM (active); in assay [13] it was > 150 µM (not active); in assay [14], 6.34 µM (active). For the same compound, the IC50 in assay [10] was 8.62 µM (active); in assay [11], 61.2 µM (active); in [15] it was > 20 µM (inactive).
In the case of `Fc1cccc(-c2c[nH]c3ncccc23)c1`, the inhibition constant Ki was 1 µM (active) in assay [16]; 0.0631 µM (active) in assay [17]; 2 µM (active) in assay [18]; 0.0398 µM (active) in [19]; 2.51 µM (active) in assay [20]; 0.00316 µM (active) in [21]. The Ki was 2.51 µM (active) in [22] and 7.94 µM (active) in [23].
Turning to `COc1ccc(NC(=O)C(c2ccnc3ccccc23)n2c(=O)c(-c3ccco3)nc3ccccc32)cc1` (configuration not stated), the IC50 in assay [24] is 10.9 µM (inactive).
Turning to `O=C(NC1CCCCC1)C(c1ccc(C(F)(F)F)cc1)n1c(=O)c(-c2ccco2)nc2ccccc21` (configuration not stated), the IC50 in assay [24] is 2.41 µM (active).
Regarding `CCCCCNC(=O)C(c1ccc(C#N)cc1)n1c(=O)c(-c2ccco2)nc2ccccc21` (configuration not stated), the IC50 in [24] is 3.24 µM (active).
Same read-out and setting: in the case of `COc1ccc(C(C(=O)NCc2ccccc2)n2c(=O)c(-c3ccco3)nc3ccccc32)cc1` (configuration not stated) it was 2.46 µM (active).
Take `Cc1ccc(-c2nc3ccc(Br)cn3c2Cc2ccccc2)cc1`: the IC50 in assay [5] and in [6] was > 67.6 µM (inactive) each time.
On to `C#CCN(C[C@H]1[C@H](OC(=O)Nc2cccs2)[C@H](OC(=O)Nc2cccs2)C[C@H]2C(=O)N(c3ccccc3)C(=O)[C@@H]12)S(=O)(=O)c1ccc(C)cc1`, for which the IC50 in assay [10] was 19.9 µM (active); in [11] it was 34.5 µM (active).
As to `CC(C)NC(=O)N1C[C@@H]2[C@H](c3ccccc31)[C@@H](CO)N2C(=O)c1cccnc1`, in assay [9], the concentration at half-maximal activity (AC50) is 10.1 µM (active).
`COc1ccc(/C=C2\Oc3ccccc3C2=O)cc1` [4'-METHOXY-AURONE]: the IC50 in [1] was 0.912 µM (active).

A word on the AC50: it is the concentration at which the activity in the assay is half-maximal. One may read the EC50 as the concentration giving half of the maximal effect. The term Ki denotes the dissociation constant of the complex between target and ligand, obtained from inhibition or displacement.
